Assay results taken from BindingDB's records for doi:10.3109/14756366.2012.692086 (Giresun University, 2013).
pIC50: −log10 of the molar value.

What follows are molecules tested against T1, Neutrophil elastase (Homo sapiens, UniProt P08246) (assay: Elastase Activity Assay).
T1 sequence (P08246 whole entry): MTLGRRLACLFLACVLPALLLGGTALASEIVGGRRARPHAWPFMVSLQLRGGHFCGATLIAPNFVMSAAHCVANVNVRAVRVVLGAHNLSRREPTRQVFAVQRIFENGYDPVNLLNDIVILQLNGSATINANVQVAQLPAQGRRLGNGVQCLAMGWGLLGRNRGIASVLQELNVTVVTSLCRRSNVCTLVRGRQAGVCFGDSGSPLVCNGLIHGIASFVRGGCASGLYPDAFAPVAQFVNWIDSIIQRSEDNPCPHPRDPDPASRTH
Text: The elastase inhibitor activity was examined using N-succinyl-Ala-Ala-Ala-pnitroanilide (STANA) as the substrate and by the measuring of the release of p-nitroaniline at 410 nm [James et al., Biochemistry, 35:9090-9096].
In the case of `C[C@H]1[C@H](C)CC[C@]2(C(=O)O)CC[C@]3(C)C(=CC[C@@H]4[C@@]5(C)CC[C@H](O)C(C)(C)[C@@H]5CC[C@]43C)[C@H]12` [3beta-hydroxyurs-12-en-28-oic acid], the pIC50 was 6.38. Molecule `CN(CCN(Cc1cc(=O)oc2cc(O)c(O)cc12)c1ccccc1)c1ccccc1` [4,4'-(Ethane-1,2-diylbis(phenylazanediyl))bis(methylene)bis(7,8-dihydroxy-2H-chromen-2-one) (3)] has a pIC50 of 6.90. Work on `CN(CCN(Cc1cc(=O)oc2c(O)c(O)ccc12)c1ccccc1)c1ccccc1` [4,4'-(Ethane-1,2-diylbis(phenylazanediyl))bis(methylene)bis(6,7-dihydroxy-2H-chromen-2-one) (7)] yielded a pIC50 of 6.90.
